Data as given in patent publication US20150250166A1, “NOOTKATONE AS AN INSECTICIDE AND INSECT REPELLENT” (ALLYLIX, INC., priority 2012, published 2015).

Test system: adult cat fleas (Ctenocephalides felis)
Experiment: Cat flea repellency, treated versus untreated paper towel halves in payliner
Type: in vivo
Conditions: for Percent Repellency (corrected for isopropanol control) / cat fleas on 10% Nootkatone-treated paper towel, average count of five trials (of 10): 10% nootkatone, 0.1% BHT in isopropanol
Experimental: A formulation, containing 10% nootkatone, 0.1% butylated hydroxytoluene (BHT) in isopropanol was tested for efficacy for repelling adult cat fleas (Ctenocephalides felis). Equal amounts of 10% nootkatone solution, stored at ambient temperature and humidity, were applied to five semi-circular pieces of paper towels, arranged so that they were evenly spaced on a sheet of aluminum foil, until sufficiently wet to the touch. Five untreated semi-circular pieces were marked with the letter “c”, for control, on both sides in pencil or solvent resistant ink. Each of the semi-circular pieces of paper towel had the diameter of a 5-gallon payliner. Immediately after spraying the paper towels with the nootkatone solution, the treated towels were placed in 5 5-gallon payliners. The untreated semi-circular paper towels were also placed in the payliners, with the flat sides of the semi-circle side-by-side with those of the treated pieces, so that the bottoms of the payliners were completely covered with paper towel, half treated and half untreated. Five additional payliners with one semi-circular paper towel treated with isopropyl alcohol and the other untreated served as controls. A 9 dram vial, containing 10 cat fleas (El Labs Inc (Soquel, Calif.)) was emptied onto each of the untreated paper towels in the payliners (total of 10 payliners). The distribution of the cat fleas on the control vs. treated paper towels was recorded at 0.5, 1, 1.5, 2, and 24 hours. Observations were made quietly to minimize the disturbance to the fleas by the observer. The containers were kept at ambient temperature and humidity for the duration of the study. The repellency was calculated from the following equation: R=[(C−T)/C]*100, where R is the % repellency, C is the fraction of fleas on the isopropanol-treated paper towel pieces, and T is the fraction of fleas on the nootkatone-treated paper towel pieces.

Q: How did the “cat flea repellency, in words” value (10% nootkatone in isopropyl alcohol) turn out when `C=C(C)[C@@H]1CCC2=CC(=O)C[C@@H](C)[C@]2(C)C1` [nootkatone, 4,4a,5,6,7,8-hexahydro-6-isopropenyl-4,4a-dimethyl-2(3H)-naphtalenone] was run?
A: The value was “does not repel cat fleas”.

Q: What about the “Percent Repellency (corrected for isopropanol control)” value (“Percent Repellency” below) (0.5 hr) of the same molecule?
A: The value was −40.0%.

Q: And the “cat fleas on 10% Nootkatone-treated paper towel, average count of five trials (of 10)” value (0.5 hr)?
A: The value was 5.6.

Q: And the “Percent Repellency” value (1 hr)?
A: Its value is 9.5%.

Q: And the “cat fleas on 10% Nootkatone-treated paper towel, average count of five trials (of 10)” value (1 hr)?
A: The value was 3.8.

Q: And the “Percent Repellency” value (1.5 hr)?
A: Its value is 9.5%.

Q: What about the “cat fleas on 10% Nootkatone-treated paper towel, average count of five trials (of 10)” value (1.5 hr) of the same molecule?
A: Its value is 3.8.

Q: What about the “Percent Repellency” value (2 hr) of the same molecule?
A: Its value is 20.0%.

Q: What about the “cat fleas on 10% Nootkatone-treated paper towel, average count of five trials (of 10)” value (2 hr) of the same molecule?
A: The value was 3.2.

Q: And the “Percent Repellency” value (24 hr)?
A: Its value is 38.9%.

Q: What about the “cat fleas on 10% Nootkatone-treated paper towel, average count of five trials (of 10)” value (24 hr) of the same molecule?
A: Its value is 2.2.
